Test results as given in patent US20250011287A1, “FLUORINE-CONTAINING COMPOUND AND CONTRAST AGENT” (TDK CORPORATION, priority 2021, published 2025).

Experiments:
[1] = 19F spin-spin relaxation time (T2) measurement by CPMG method, 500 MHz NMR; assay type: physicochemical; conditions: 5 mM/CDCl3, 36° C.
Protocol: (§1) For each of the compounds of Examples 1 to 10, Comparative Example 1, and Comparative Example 2 obtained as above, a ^19F spin-lattice relaxation time (T1) and a ^19F spin-spin relaxation time (T2) were measured by the following method.
The compound was dissolved in a deuterated chloroform solution at a concentration of 5 mM, and the transverse relaxation time (T2) of the ^19F nucleus was measured using a 500 MHz NMR device by a Carr-Purcell-Meiboom-Gill (CPMG) method under the conditions described below.
• NMR device: JNM-ECA500 (manufactured by JOEL) • Measurement temperature: 36° C. • relaxation_delay: 10 [s] • tau_step: 1 [ms] • relaxation_delay: 1, 2, 3, 4, 5, 6, 8, 9, 10, 25, 50, 75 [ms], 0.10, 0.25, 0.50, 0.75, 1.00, 1.25, 1.50, 1.75, 2.00 [s] • Accumulated number of times: 128 times

[2] = 19F spin-lattice relaxation time (T1) measurement by inversion recovery method, 500 MHz NMR; assay type: physicochemical; conditions: 5 mM/CDCl3, 36° C.
Protocol: as §1
The compound was dissolved in a deuterated chloroform solution at a concentration of 5 mM, and the longitudinal relaxation time (T1) of the ^19F nucleus was measured using a 500 MHz NMR device by an inversion recovery method under the conditions described below.
• NMR device: JNM-ECA500 (manufactured by JOEL) • Measurement temperature: 36° C. • Pulse sequence: double_pulse • relaxation_delay: 10 [s] • tau_interval: 4, 3, 2, 1, 0.8, 0.6, 0.4, 0.2, 0.1 [s], 80, 60, 40, 20, 10, 8, 6, 4, 2 [ms] • Accumulated number of times: 128 times

Molecule	T2 (19F spin-spin relaxation time) [1] [s]	T1 (19F spin-lattice relaxation time) [2] [s]
1,3-Bis(2,2,2-trifluoro-1,1-bis(trifluoromethyl(ethoxy)-2,2-bis((2,2,2-trifluoro-1,1-bis(trifluoromethyl)ethoxy)methyl)propane [Compound A1, reference compound]	1.270	1.380
4-(3-((1,1,1,3,3,3-hexafluoro-2-(trifluoromethyl)propan-2-yl)oxy)-2,2-bis(((1,1,1,3,3,3-hexafluoro-2-(trifluoromethyl)propan-2-yl)oxy)methyl)propoxy)-2,2,6,6-tetramethylpiperidin-1-oxyl [Compound 11]	0.057	0.077
4-(3-((1,1,1,3,3,3-hexafluoro-2-(trifluoromethyl)propan-2-yl)oxy)-2-(((1,1,1,3,3,3-hexafluoro-2-(trifluoromethyl)propan-2-yl)oxy)methyl)-2-methylpropoxy)-2,2,6,6-tetramethylpiperidin-1-oxyl [Compound 13]	0.050	0.071
CCC1(CC)CC(OCC(COC(C(F)(F)F)(C(F)(F)F)C(F)(F)F)(COC(C(F)(F)F)(C(F)(F)F)C(F)(F)F)COC(C(F)(F)F)(C(F)(F)F)C(F)(F)F)CC(CC)(CC)N1O [Compound 12, 4-(3-((1,1,1,3,3,3-hexafluoro-2-(trifluoromethyl)propan-2-yl)oxy)-2,2-bis(((1,1,1,3,3,3-hexafluoro-2-(trifluoromethyl)propan-2-yl)oxy)methyl)propoxy)-2,2,6,6-tetraethylpiperidin-1-oxyl]	0.049	0.070
CC1(C)CC(OCCOCC(COC(C(F)(F)F)(C(F)(F)F)C(F)(F)F)(COC(C(F)(F)F)(C(F)(F)F)C(F)(F)F)COC(C(F)(F)F)(C(F)(F)F)C(F)(F)F)CC(C)(C)N1O [Compound 14]	0.101	0.153
CCC1(CC)CC(OCCOCC(COC(C(F)(F)F)(C(F)(F)F)C(F)(F)F)(COC(C(F)(F)F)(C(F)(F)F)C(F)(F)F)COC(C(F)(F)F)(C(F)(F)F)C(F)(F)F)CC(CC)(CC)N1O [Compound 15]	0.092	0.145
CC1(C)CC(OCCCOCC(COC(C(F)(F)F)(C(F)(F)F)C(F)(F)F)(COC(C(F)(F)F)(C(F)(F)F)C(F)(F)F)COC(C(F)(F)F)(C(F)(F)F)C(F)(F)F)CC(C)(C)N1O [Compound 16]	0.120	0.183
CCC1(CC)CC(OCCCOCC(COC(C(F)(F)F)(C(F)(F)F)C(F)(F)F)(COC(C(F)(F)F)(C(F)(F)F)C(F)(F)F)COC(C(F)(F)F)(C(F)(F)F)C(F)(F)F)CC(CC)(CC)N1O [Compound 17]	0.108	0.172
CC1(C)CC(OCCCCCCOCC(COC(C(F)(F)F)(C(F)(F)F)C(F)(F)F)(COC(C(F)(F)F)(C(F)(F)F)C(F)(F)F)COC(C(F)(F)F)(C(F)(F)F)C(F)(F)F)CC(C)(C)N1O [Compound 18]	0.274	0.428
CC1(C)CC(OCCCCCCCCCOCC(COC(C(F)(F)F)(C(F)(F)F)C(F)(F)F)(COC(C(F)(F)F)(C(F)(F)F)C(F)(F)F)COC(C(F)(F)F)(C(F)(F)F)C(F)(F)F)CC(C)(C)N1O [Compound 19]	0.332	0.520
CC1(C)CC(OCCCCCCCCCCCCOCC(COC(C(F)(F)F)(C(F)(F)F)C(F)(F)F)(COC(C(F)(F)F)(C(F)(F)F)C(F)(F)F)COC(C(F)(F)F)(C(F)(F)F)C(F)(F)F)CC(C)(C)N1O [Compound 20]	0.390	0.612
